Reference: US20250352654A1, “PHARMACEUTICAL AGENT CONJUGATES TO MODULATE MACROPHAGE AND INFLAMMATORY FUNCTIONS AND USES THEREOF” (REGENTS OF THE UNIVERSITY OF MINNESOTA, priority 2022, published 2025)
Bridge positions count the residues as written; N and C are the ends. Peptide text beside a SMILES is read from it. * marks the point of attachment. 5FAM = O=C1OC2(c3ccc(O)cc3Oc3cc(O)ccc32)c2ccc(C(=O)*)cc21; Ahx = NCCCCCC(=O)O

Legend:
[1] = test system: inflamed synovium of the arthritic joints; test: FAM-CRV homing in CIA mice (IHC/IF); format: in vivo, mouse; conditions: i.v., 1 h, IHC
Protocol: FIGS. 7B-7D illustrates In vivo CRV peptide distribution in arthritic mouse models. (B) Scheme of synthesis of 64Cu-DOTA-CRV. (C) Representative immunohistochemistry (IHC) images of peptide accumulation in the tissues of collagen-induced-arthritis (CIA) mice with anti-FITC antibody for FAM-labeled CRV and FAM-GGS, upon intravenous injection for 1 h, respectively. Scale bars: 100 μm. (D) Representative IHC images of CRV-peptide and a control peptide (GGS) accumulation in the ankle joints of K/B×N serum-transfer arthritic mice at 1 h post intravenous injection as detected by FAM signals with anti-FITC antibody. Scale bar: 200 μm for 10× magnification; 100 μm for 20× magnification. All the animal experiments were performed in 3 mice per group. DOTA, 1,4,7,10-tetraazacyclododocane tetraacetic acid; FAM, carboxyfluorescein; FITC, fluorescein isothiocyanate.
FIG. 8A-8G CRV targets the inflamed synovium of the arthritic joints. (A) Scheme of the establishment of collagen-induced arthritis (CIA) model. (B) In vivo PET/CT images of 64Cu-DOTA and 64Cu-DOTA-CRV accumulation at the joints of mice with CIA. […] (C) Quantification of 64Cu-DOTA or 64Cu-DOTA-CRV uptake at the knees and ankles by analyzing PET data of the region of interest (ROI). […] (E) Representative IHC images of CRV-peptide accumulation in the knee joint as detected by FAM signals with anti-FITC antibody. […]

[2] = In vivo pharmacokinetics of DEX conjugates; conditions: male, DBA/1J, mouse, plasma, iv, 1 mg kg^-1 (DEX equivalent); healthy mice; mean ± SD (n = 3)
Protocol: All the animal experiments were performed on 3 mice per group. The data are presented as the mean±standard deviation (SD). […] All the animal experiments were performed on 3 mice per group. The data are presented as the mean±standard deviation (SD). Statistical significance was calculated using Student's t test. *P<0.05, **P<0.01 between groups. […] ND, not determined.
HPLC-MS/MS analysis was performed using the chromatographic system consisting of UltiMate 3000 RSLCnano System (Thermo Fisher Scientific) and a ZORBAX C18 column (5 μm, 150 mm 0.5 mm, Agilent, Santa Clara, CA). The mobile phase was a mixture of H2O/acetonitrile with a gradient elution (from 90:10 to 10:90 and return to 90:10, v/v) at a flow rate of 15 μl/min. The eluent was introduced directly into the electrospray source of a tandem quadrupole mass spectrometer (TSQ VANTAGE, Thermo Fisher Scientific) that was operated in the positive mode. The spray voltage was set at 3000 V. The compounds were analyzed by multiple reaction monitoring (MRM) of the transitions of m/z (ESI+) 361.24→147.06 for PSL.
Healthy DBA/1J male mice at age of 8-9 weeks were deprived of food overnight with free access to water. […] Approximately 20 IL of blood was collected via facial vein at 5, 15, 30, 60 min and, 2, 6, 12, 24, and 48 h, and plasma were obtained by centrifugation at 500×g for 10 min. […]

[3] = Short-term side effects of DEX conjugates in CIA mice; format: in vivo, mouse; conditions: 0.01 mg kg-1 DEX equivalent i.v. every two days for one week
Protocol: (§1) (A) Quantification of immunofluorescent signals (Top) and representative immunofluorescent images (bottom) of TUNEL-positive cells showing apoptotic cells in tissues of mice receiving short-term treatments. (B-C) Plasma levels of liver enzymes alanine transaminase (ALT) and (F) aspartate transaminase (AST). […] Thymus and spleen weight in mice receiving long-term treatments.
(§2) The TUNEL staining was performed using an In Situ Cell Death Detection Kit (Roche Diagnostics GmbH, Mannheim, Germany). The paraffin sections were stained with TUNEL reaction mixture for 1 h at 37° C. followed by Hoechst staining for nucleus. The images were captured by using fluorescence microscopy EVOS M5000 and the fluorescence intensity of TUNEL positive cells was evaluated by ImageJ software for semi-quantification.
(§3) The aminotransferase quantification was performed to determine toxicity effect of different formulations of PSL on the liver. Blood samples were collected by cardiac puncture after the treatment. The levels of aspartate aminotransferase (AST) and alanine aminotransferase (ALT) in plasma were measured using assay kits from Stanbio (Boerne, TX).
(§4) Additionally, we examined the commonly seen systemic side effects including the reduced thymus and spleen weight due to increased apoptosis after a short-term low dose and a long-term glucocorticoid usage.

[4] = DEX-PEG conjugations with different PEG lengths in obese mice with ALI; format: in vivo, mouse; conditions: 0.1 mg/kg DEX equivalent i.v. every other day for 3 weeks
Protocol: (A) Body weight of mice in each treatment group. (B) Blood glucose of mice during the ITT experiment. Mice were fasted for 6 hours, and […] of insulin was administered via intraperitoneal (i.p.) injection. The blood glucose levels were measured using Clarity BG1000 Blood Glucose Meter Strips at 0, 15, 30, 60, 90, and 120 minutes after the injection. (C) Thymus weight of mice in each group at the end of the study. Triglycerides (D), total cholesterol (E) and non-HDL cholesterol (F) in mice plasma were quantified by LiquiColor® Test (Enzymatic) Kit. Error bars indicate S.E.M., n=4. *p<0.05 and **p<0.01 (Student's t-test).
Liver was collected, fixed and sectioned. H&E staining was carried out according to the standard protocol. Scale bar, […] for all images.
Male C57 mice were subjected to high-fat diet feeding for 8 weeks to induce obesity. An acute lung injury (ALI) model was established in the obesity mice by administering 30 μg of LPS intratracheally per mouse.
In addition, lean mice and obese mice without ALI were included in the study as controls and received no treatment. Body weight of the mice was monitored every other day during the study. One day prior to sacrificing the mice, an insulin tolerance test (ITT) was conducted. Blood and major organs were collected at the end of the study, and plasma triglycerides, total and non-HDL cholesterol were quantified. The organs were weighed and sectioned for H&E staining.

[5] = Long-term toxicity of DEX conjugates in healthy mice; format: in vivo, mouse; conditions: 2 mg kg-1 DEX equivalent, daily i.v. for 2 weeks
Protocol: as §1, §2, §3, §4

## CC(C)C[C@@H]1NC(=O)[C@H](C(C)C)NC(=O)[C@H](CCCNC(=N)N)NC(=O)[C@@H](NC(=O)CCCCCNC(=O)c2ccc3c(c2)C(=O)OC32c3ccc(O)cc3Oc3cc(O)ccc32)CSSC[C@@H](C(=O)O)NC(=O)[C@H](CO)NC(=O)CNC(=O)[C@H](CO)NC(=O)[C@H](CCCNC(=N)N)NC1=O [CRV] ({5FAM-Ahx}-CRVLRSGSC-OH; disulfide 1-9)
[1]
  peptide accumulation in other organs: some accumulation of CRV in the liver and kidney, while no or much less in other organs

## C[C@@H]1C[C@H]2[C@@H]3CCC4=CC(=O)C=C[C@]4(C)[C@@]3(F)[C@@H](O)C[C@]2(C)[C@@]1(O)C(=O)CO [DEX, dexamethasone]
[2]
  AUC(0-t): 23.2 ± 5.14 ng·h/mL
[3]
  apoptosis in tissues (TUNEL), short-term: increases the level of apoptosis mainly in the thymus
[4]
  Thymus weight: reduces thymus weight
  body weights or blood glucose: no change
  triglycerides in the plasma: elevates the blood triglyceride
[5]
  apoptosis in thymus and spleen (TUNEL), long-term: increased apoptosis in thymus and spleen
  thymus and spleen weight, long-term: most significant weight loss of thymus and spleen
